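Five concentrations, 48 hours, 96-well plates. The concentration for 50% growth inhibition is given as GI50. TGI is the concentration that stops growth completely.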
Columns and labels:
Assay in all cases: inhibition of tumour cell growth, NCI panel, 48 h
HCT-116 colon = system: HCT-116 colon
OVCAR-3 ovarian = system: OVCAR-3 ovarian
OVCAR-8 ovarian = system: OVCAR-8 ovarian
CAKI-1 renal = system: CAKI-1 renal
CCRF-CEM leukemia = system: CCRF-CEM leukemia
SW-620 colon = system: SW-620 colon
MDA-MB-435 = system: MDA-MB-435
HT29 colon = system: HT29 colon
LOX IMVI melanoma = system: LOX IMVI melanoma
786-0 renal = system: 786-0 renal
SF-539 CNS = system: SF-539 CNS
SK-MEL-28 melanoma = system: SK-MEL-28 melanoma
TK-10 renal = system: TK-10 renal
SK-MEL-5 melanoma = system: SK-MEL-5 melanoma
NCI/ADR-RES ovarian = system: NCI/ADR-RES ovarian
MDA-MB-231 breast = system: MDA-MB-231 breast
PC-3 prostate = system: PC-3 prostate
SK-MEL-2 melanoma = system: SK-MEL-2 melanoma
NCI-H23 lung = system: NCI-H23 lung
SK-OV-3 ovarian = system: SK-OV-3 ovarian
NCI-H460 lung = system: NCI-H460 lung
SNB-75 CNS = system: SNB-75 CNS
BT-549 breast = system: BT-549 breast
SN12C renal = system: SN12C renal
NCI-H522 lung = system: NCI-H522 lung
MALME-3M melanoma = system: MALME-3M melanoma
A549 NSCLC = system: A549 NSCLC
IGROV1 ovarian = system: IGROV1 ovarian
HCC-2998 colon = system: HCC-2998 colon
SF-268 CNS = system: SF-268 CNS
HOP-62 NSCLC = system: HOP-62 NSCLC
RPMI-8226 leukemia = system: RPMI-8226 leukemia
MOLT-4 leukemia = system: MOLT-4 leukemia
NCI-H226 lung = system: NCI-H226 lung
KM12 colon = system: KM12 colon
HS 578T breast = system: HS 578T breast
DU-145 prostate = system: DU-145 prostate
ACHN renal = system: ACHN renal
SNB-19 CNS = system: SNB-19 CNS
RXF 393 renal = system: RXF 393 renal
HCT-15 colon = system: HCT-15 colon
K-562 leukemia = system: K-562 leukemia
OVCAR-4 ovarian = system: OVCAR-4 ovarian
MCF7 breast = system: MCF7 breast
M14 melanoma = system: M14 melanoma
HOP-92 NSCLC = system: HOP-92 NSCLC
A498 renal = system: A498 renal
UACC-257 melanoma = system: UACC-257 melanoma
UO-31 renal = system: UO-31 renal
U251 CNS = system: U251 CNS
HL-60(TB) leukemia = system: HL-60(TB) leukemia
COLO 205 colon = system: COLO 205 colon
OVCAR-5 ovarian = system: OVCAR-5 ovarian
T-47D breast = system: T-47D breast
UACC-62 melanoma = system: UACC-62 melanoma
SR leukemia = system: SR leukemia
SF-295 CNS = system: SF-295 CNS

`Cn1cc(C2=C(c3c4n(c5ccccc35)CCN(C(N)=S)C4)C(=O)NC2=O)c2ccccc21` showed a GI50 (HCT-116 colon) of 4.11 µM, a TGI (HCT-116 colon) of over 16.8 µM and a GI50 (OVCAR-3 ovarian) of 1.75 µM. The TGI (OVCAR-3 ovarian) was 7.36 µM, the GI50 (OVCAR-8 ovarian) was 7.13 µM and the TGI (OVCAR-8 ovarian) was over 25 µM. It also gave a GI50 (CAKI-1 renal) of 4.85 µM, a TGI (CAKI-1 renal) of over 20.8 µM and a GI50 (CCRF-CEM leukemia) of 4.61 µM. The TGI (CCRF-CEM leukemia) was over 25 µM, the GI50 (SW-620 colon) was 3.45 µM and the TGI (SW-620 colon) was over 25 µM. For the same molecule, the GI50 (MDA-MB-435) was 0.883 µM, the TGI (MDA-MB-435) was 5.98 µM and the GI50 (HT29 colon) was 2.28 µM. For the same molecule, the TGI (HT29 colon) was over 25 µM, the GI50 (LOX IMVI melanoma) was 2.5 µM and the TGI (LOX IMVI melanoma) was over 25 µM. It also gave a GI50 (786-0 renal) of 5.23 µM, a TGI (786-0 renal) of over 25 µM and a GI50 (SF-539 CNS) of 1.48 µM. It also gave a TGI (SF-539 CNS) of 7.86 µM, a GI50 (SK-MEL-28 melanoma) of 5.34 µM and a TGI (SK-MEL-28 melanoma) of over 25 µM. The GI50 (TK-10 renal) was 8.64 µM, the TGI (TK-10 renal) was over 23.7 µM and the GI50 (SK-MEL-5 melanoma) was 2.67 µM. For the same molecule, the TGI (SK-MEL-5 melanoma) was over 16.7 µM, the GI50 (NCI/ADR-RES ovarian) was 9.48 µM and the TGI (NCI/ADR-RES ovarian) was over 25 µM. It also gave a GI50 (MDA-MB-231 breast) of 6.95 µM, a TGI (MDA-MB-231 breast) of over 23.2 µM and a GI50 (PC-3 prostate) of 4.92 µM. It also gave a TGI (PC-3 prostate) of over 25 µM, a GI50 (SK-MEL-2 melanoma) of 4.32 µM and a TGI (SK-MEL-2 melanoma) of 13 µM. It also gave a GI50 (NCI-H23 lung) of 7.34 µM, a TGI (NCI-H23 lung) of over 25 µM and a GI50 (SK-OV-3 ovarian) of 4.51 µM. For the same molecule, the TGI (SK-OV-3 ovarian) was over 25 µM, the GI50 (NCI-H460 lung) was 6.91 µM and the TGI (NCI-H460 lung) was over 22.8 µM. It also gave a GI50 (SNB-75 CNS) of 0.36 µM, a TGI (SNB-75 CNS) of 10.6 µM and a GI50 (BT-549 breast) of 6.83 µM. It also gave a TGI (BT-549 breast) of over 25 µM, a GI50 (SN12C renal) of 6.99 µM and a TGI (SN12C renal) of over 25 µM. It also gave a GI50 (NCI-H522 lung) of 1.95 µM, a TGI (NCI-H522 lung) of over 15 µM and a GI50 (MALME-3M melanoma) of over 11 µM. The TGI (MALME-3M melanoma) was over 25 µM, the GI50 (A549 NSCLC) was 5.55 µM and the TGI (A549 NSCLC) was over 25 µM. It also gave a GI50 (IGROV1 ovarian) of 7.82 µM, a TGI (IGROV1 ovarian) of over 19.1 µM and a GI50 (HCC-2998 colon) of 6.13 µM. It also gave a TGI (HCC-2998 colon) of 20.8 µM, a GI50 (SF-268 CNS) of 5.58 µM and a TGI (SF-268 CNS) of over 25 µM. The GI50 (HOP-62 NSCLC) was 6.81 µM, the TGI (HOP-62 NSCLC) was over 25 µM and the GI50 (RPMI-8226 leukemia) was 12.9 µM. The TGI (RPMI-8226 leukemia) was over 25 µM, the GI50 (MOLT-4 leukemia) was 5.12 µM and the TGI (MOLT-4 leukemia) was over 20.9 µM. For the same molecule, the GI50 (NCI-H226 lung) was 5.84 µM, the TGI (NCI-H226 lung) was over 19 µM and the GI50 (KM12 colon) was 3.05 µM. It also gave a TGI (KM12 colon) of 9.69 µM, a GI50 (HS 578T breast) of 0.88 µM and a TGI (HS 578T breast) of 11.1 µM. It also gave a GI50 (DU-145 prostate) of 8.04 µM, a TGI (DU-145 prostate) of over 23.1 µM and a GI50 (ACHN renal) of 5.95 µM. For the same molecule, the TGI (ACHN renal) was over 25 µM, the GI50 (SNB-19 CNS) was 12.8 µM and the TGI (SNB-19 CNS) was over 25 µM. It also gave a GI50 (RXF 393 renal) of 2.34 µM, a TGI (RXF 393 renal) of 10.6 µM and a GI50 (HCT-15 colon) of 6.31 µM. It also gave a TGI (HCT-15 colon) of over 25 µM, a GI50 (K-562 leukemia) of 1.59 µM and a TGI (K-562 leukemia) of over 17 µM. It also gave a GI50 (OVCAR-4 ovarian) of 6.87 µM, a TGI (OVCAR-4 ovarian) of over 25 µM and a GI50 (MCF7 breast) of 1.24 µM. For the same molecule, the TGI (MCF7 breast) was over 17.2 µM, the GI50 (M14 melanoma) was 4.71 µM and the TGI (M14 melanoma) was over 25 µM. The GI50 (HOP-92 NSCLC) was 8.82 µM, the TGI (HOP-92 NSCLC) was over 25 µM and the GI50 (A498 renal) was 1.59 µM. The TGI (A498 renal) was 9.64 µM, the GI50 (UACC-257 melanoma) was 7.11 µM and the TGI (UACC-257 melanoma) was over 25 µM. For the same molecule, the GI50 (UO-31 renal) was 4.37 µM, the TGI (UO-31 renal) was over 21.7 µM and the GI50 (U251 CNS) was 4.49 µM. For the same molecule, the TGI (U251 CNS) was 11.2 µM, the GI50 (HL-60(TB) leukemia) was 2.33 µM and the TGI (HL-60(TB) leukemia) was 8.05 µM. The GI50 (COLO 205 colon) was 5.97 µM, the TGI (COLO 205 colon) was over 21.6 µM and the GI50 (OVCAR-5 ovarian) was 16 µM. For the same molecule, the TGI (OVCAR-5 ovarian) was over 25 µM, the GI50 (T-47D breast) was 10.4 µM and the TGI (T-47D breast) was over 25 µM. It also gave a GI50 (UACC-62 melanoma) of 4.27 µM, a TGI (UACC-62 melanoma) of over 25 µM and a GI50 (SR leukemia) of 1.35 µM. For the same molecule, the TGI (SR leukemia) was over 15.1 µM, the GI50 (SF-295 CNS) was 2.64 µM and the TGI (SF-295 CNS) was 10.8 µM.

Source: PubChem BioAssay (NCI)
